Several values for one entry are separate records, joined by “and”; a condition that tells them apart may be missing. Identical values can stand only once.
Tests used:
Experiment in all cases: Y2H growth and quantitative α-galactosidase assay
Format in all cases: cell-based
SCRM-FAMA heterodimer = molecular target: T1, SCRM-FAMA heterodimer (Arabidopsis thaliana, UniProt Q56YJ8); settings: for a-galactosidase: yeast FAMA∆N+SCRM, individual replicates, listed as AYSJ929
T1 construct: truncated SPCH and FAMA proteins lacking their N-terminal domain were used in yeast; expressed in transfected cells; host or cells: yeast strain AH109
T1 sequence (Q56YJ8 190-414, one chain of several): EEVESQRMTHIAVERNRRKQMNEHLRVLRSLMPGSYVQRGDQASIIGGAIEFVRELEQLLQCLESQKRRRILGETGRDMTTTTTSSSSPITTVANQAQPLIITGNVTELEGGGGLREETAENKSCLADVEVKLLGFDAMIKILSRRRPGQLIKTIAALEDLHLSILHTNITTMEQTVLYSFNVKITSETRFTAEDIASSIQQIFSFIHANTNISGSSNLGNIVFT
Description: (§1) Y2H assays were performed using the Matchmaker^TM Two-Hybrid System (Clontech). Bait (pGBKT7) and prey (pGADT7) constructs were co-transformed into the yeast strain AH109 using Frozen-EZ Yeast Transformation II Kit (Zymo Research, T2001). The resulting transformants were spotted on SD ( − Leu, −Trp) and SD ( − Trp, −Leu, −His) selection media containing different concentrations of 3-amino-1,2,4-triazole (Sigma, A8056) as previously reported. Quantitative α-galactosidase assay was also performed according to manufactural instruction (Clontech). Briefly, the transformants were incubated in 2 ml SD medium with 0, 10, 50 100 μM Stomidazolone (3) or SIM3* (7) with rotary shake (220 rpm) at 30 °C overnight. The cultured media containing yeast were transferred to microtubes and centrifuged to obtain the supernatant. The colorimetric assay was performed by incubating 8 μL of supernatant with 24 μL Assay Buffer that contains 0.5 M sodium acetate (pH 4.5) (Nakalai tesque, 31137-25): 100 mM p-nitrophenyl α-D-Galactopyranoside Solution (Sigma N0877) = 2:1 (v/v) at 30 °C for 60 min, then terminated by adding 960 μL 1X Stop Solution (0.1 M sodium carbonate, Fujifilm Wako 195-01582). After OD410 was recorded, α-galactosidase units were calculated according to the protocol (Clontech, P3024-1).

SCRM-MUTE heterodimer = molecular target: T2, SCRM-MUTE heterodimer (Arabidopsis thaliana, UniProt Q9M8K6); settings: for a-galactosidase: yeast MUTE+SCRM, individual replicates, listed as AYSJ929
T2 construct: expressed in transfected cells; host or cells: yeast strain AH109
T2 sequence (Q9M8K6 1-202): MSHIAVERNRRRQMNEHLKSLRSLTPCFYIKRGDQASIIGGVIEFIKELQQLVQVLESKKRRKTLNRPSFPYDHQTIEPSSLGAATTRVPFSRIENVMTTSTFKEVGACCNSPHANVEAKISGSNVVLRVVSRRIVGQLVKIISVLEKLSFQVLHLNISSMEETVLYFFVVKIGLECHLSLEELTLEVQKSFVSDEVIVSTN
Description: as §1

SCRM-SPCH heterodimer = molecular target: T3, SCRM-SPCH heterodimer (Arabidopsis thaliana, UniProt Q700C7); settings: for a-galactosidase: yeast SPCH∆N+SCRM, individual replicates, listed as AYSJ929
T3 construct: truncated SPCH and FAMA proteins lacking their N-terminal domain were used in yeast; expressed in transfected cells; host or cells: yeast strain AH109
T3 sequence (Q700C7 98-364 limits assumed): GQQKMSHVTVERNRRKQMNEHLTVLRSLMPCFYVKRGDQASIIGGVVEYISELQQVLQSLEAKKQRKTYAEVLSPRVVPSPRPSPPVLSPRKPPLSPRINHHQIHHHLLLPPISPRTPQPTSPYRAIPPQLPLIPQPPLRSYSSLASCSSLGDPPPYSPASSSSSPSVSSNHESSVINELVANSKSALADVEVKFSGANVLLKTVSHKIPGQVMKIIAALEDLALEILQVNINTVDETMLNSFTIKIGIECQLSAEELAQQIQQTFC
Description: as §1

Q: Which results are given for O=C1C(c2ccccc2)=NC(NS(=O)(=O)c2ccccc2)(c2ccccc2)N1S(=O)(=O)c1ccccc1 (stereo not drawn) [Stomidazolone]?
A: effect in quantitative α-galactosidase assay (SCRM-FAMA heterodimer; 0, 10, 50, 100 μM): inhibits these stomatal bHLH heterodimers in a dose-dependent manner; effect on association in Y2H growth assay (SCRM-FAMA heterodimer; 50 μM, 1 mM 3-AT, N-terminally truncated FAMA): diminishes; a-galactosidase (SCRM-FAMA heterodimer; 10 µM): 9.32 milliunits /(ml x cell) and 7.38 milliunits /(ml x cell) and 8.74 milliunits /(ml x cell); a-galactosidase (SCRM-FAMA heterodimer; 50 µM): 7.60 milliunits /(ml x cell) and 6.41 milliunits /(ml x cell) and 6.17 milliunits /(ml x cell); a-galactosidase (SCRM-FAMA heterodimer; 100 µM): 5.72 milliunits /(ml x cell) and 5.36 milliunits /(ml x cell) and 4.71 milliunits /(ml x cell); effect in quantitative α-galactosidase assay (SCRM-MUTE heterodimer; 0, 10, 50, 100 μM): inhibits these stomatal bHLH heterodimers in a dose-dependent manner; effect on association in Y2H growth assay (SCRM-MUTE heterodimer; 50 μM, 1 mM 3-AT): diminishes; a-galactosidase (SCRM-MUTE heterodimer; 10 µM): 6.11 milliunits /(ml x cell) and 7.57 milliunits /(ml x cell) and 6.75 milliunits /(ml x cell); a-galactosidase (SCRM-MUTE heterodimer; 50 µM): 4.46 milliunits /(ml x cell) and 5.23 milliunits /(ml x cell) and 6.35 milliunits /(ml x cell); a-galactosidase (SCRM-MUTE heterodimer; 100 µM): 5.40 milliunits /(ml x cell) and 3.71 milliunits /(ml x cell) and 5.42 milliunits /(ml x cell); effect in quantitative α-galactosidase assay (SCRM-SPCH heterodimer; 0, 10, 50, 100 μM): slightly less impact; effect on association in Y2H growth assay (SCRM-SPCH heterodimer; 50 μM, 1 mM 3-AT, N-terminally truncated SPCH): diminishes; a-galactosidase (SCRM-SPCH heterodimer; 10 µM): 5.51 milliunits /(ml x cell) and 5.69 milliunits /(ml x cell) and 5.47 milliunits /(ml x cell); a-galactosidase (SCRM-SPCH heterodimer; 50 µM): 5.02 milliunits /(ml x cell) and 5.49 milliunits /(ml x cell) and 5.63 milliunits /(ml x cell); a-galactosidase (SCRM-SPCH heterodimer; 100 µM): 5.62 milliunits /(ml x cell) and 5.13 milliunits /(ml x cell)
